Results: patent EP4644383A1 (Jiangsu Yahong Meditech Co., Ltd., priority 2022, dated 2024)
Where two headings read alike, the source gives them in different places.

Key:
[1] = test system: Ba/F3-FGFR3-BAIAP2L1 cells; assay: Inhibition of proliferation activity of Ba/F3-FGFR3-BAIAP2L1 cells (CellTiter-Glo); type: cell-based; conditions: for IC50: Ba/F3-FGFR3-BAIAP2L1 cells, 72 hours, CTG, read-out: IC50 (nM) Ba/F3-FGFR3-BAIAP2L1; for Selectivity (X) FGFR1/FGFR3: ratio of IC50 Ba/F3-BCR-FGFR1 to IC50 Ba/F3-FGFR3-BAIAP2L1
Procedure: The present experiment used CellTiter-Glo® Luminescent Cell Viability Assay (Promega: G7573) kit, which was a homogeneous cell viability detection method and determined the cell viability of cultured cells by quantifying ATP. • ① Ba/F3-BCR-FGFR1 or Ba/F3-FGFR3-BAIAP2L1 cells were cultured in 1640 complete medium (Gibco: 11879020) (10% FBS (Gibco: 10091-148)+1% Pen Strep (Gibco: 15140122)) under the condition of 37°C and 5% CO2. • (2) The cells in logarithmic growth phase were harvested and counted using a […]. The trypan blue exclusion method was used to detect cell viability to ensure the cell viability was above 90%. • ③ The cell density was adjusted using 1640 complete medium, and then, the cells were seeded into a 96-well cell culture plate at 90 µL/well with a total of 2000 cells. • ④ A 10-fold drug solution was prepared starting from a maximum drug concentration of 10 µM and 4-fold serially diluted into10 concentrations. […] The luminescence values were read to collect the data. • ⑩ The data were analyzed using XLFit excel plugin version 5.5.0.5, and fitted with non-linear S-curve regression to obtain the dose-response curves and thus calculate the IC50 values. Y = Bottom + (Top-Bottom)/((1+(IC50/X))^(∧) HillSlope [formula]
(§1) "Top" refers to the maximum response, "Bottom" refers to the minimum response, and "HillSlope" refers to the slope of the curve.
"Max" represents the average value of the cell control+DMSO, and "Min" represents the average value of the medium control+DMSO.

[2] = test system: RT112 cells (bladder cancer cells); assay: Inhibition of proliferation activity of RT112 cells (CellTiter-Glo); type: cell-based; conditions: Homo sapiens, RT-112; RT112 cells, 72 hours, CTG; read-out: IC50 (nM) RT112
Procedure: The present experiment used CellTiter-Glo® Luminescent Cell Viability Assay (Promega: G7573) kit, which was a homogeneous cell viability detection method and determined the cell viability of cultured cells by quantifying ATP. • ① RT112 cells were cultured in MEM complete medium (Gibco: 51200038) (10% FBS (Gibco: 10091-148)+1% Pen Strep (Gibco: 15140122)+1% NEAA (Gibco: 11140050)) under the condition of 37°C and 5% CO2. • (2) The cells in logarithmic growth phase were harvested and counted using a […]. The trypan blue exclusion method was used to detect cell viability to ensure the cell viability was above 90%. • ③ The cell density was adjusted using MEM complete medium, and then, the cells were seeded into a 96-well cell culture plate at 90 µL/well with a total of 3000 cells. • ④ The 96-well plate with the cells was placed under the condition of 37°C and 5% CO2 to be cultured for 24 hours. • ⑤ 24 hours later, a 10-fold drug solution was prepared starting from a maximum drug concentration of 10 µM and 4-fold serially diluted into10 concentrations. Then, 10 µL of each of the serially diluted compounds was transferred to the corresponding experimental wells of a 96-well cell plate, with two replicates for each drug concentration. • ⑥ The 96-well plate with the cells that had been treated with the drugs was placed under the condition of 37°C and 5% CO2 to be further cultured for 72 hours, and then analyzed by CTG. • ⑦ The CTG reagent was melted and the cell plate was equilibrated to room temperature for 30 minutes. • ⑧ 50 µL of the CTG solution was added to each well. • ⑨ The cell plate was shaken on an orbital shaker for 5 minutes to lyse the cells. • ⑩ The cell plate was placed at room temperature for 20 minutes to stabilize the luminescence signal. The luminescence values were read to collect the data. • ⑪ The data were analyzed using XLFit excel plugin version 5.5.0.5, and fitted with non-linear S-curve regression to obtain the dose-response curves and thus calculate the IC50 values. Y = Bottom + (Top-Bottom)/((1+(IC50/X))^(∧) HillSlope [formula]
as §1
"Max" represents the average value of the cell+DMSO control, and "Min" represents the average value of the medium control+DMSO.

FGFR3 = target: T1, FGFR3 (Homo sapiens, UniProt P22607); assay: FGFR3 kinase activity inhibition assay (LanthaScreen TR-FRET); type: biochemical; conditions: for Selectivity (X) FGFR1/FGFR3: ratio of IC50 FGFR1/FGFR3, selectivity towards FGFR3; for Selectivity (X) FGFR2/FGFR3: ratio of IC50 FGFR2/FGFR3, selectivity towards FGFR3; for Selectivity (X) FGFR4/FGFR3: ratio of IC50 FGFR4/FGFR3, selectivity towards FGFR3
T1 construct: FGFR3's cytoplasmic domain [436-806 (terminal) amino acids]; purchased Carna 08-135
T1 sequence (P22607 436-806): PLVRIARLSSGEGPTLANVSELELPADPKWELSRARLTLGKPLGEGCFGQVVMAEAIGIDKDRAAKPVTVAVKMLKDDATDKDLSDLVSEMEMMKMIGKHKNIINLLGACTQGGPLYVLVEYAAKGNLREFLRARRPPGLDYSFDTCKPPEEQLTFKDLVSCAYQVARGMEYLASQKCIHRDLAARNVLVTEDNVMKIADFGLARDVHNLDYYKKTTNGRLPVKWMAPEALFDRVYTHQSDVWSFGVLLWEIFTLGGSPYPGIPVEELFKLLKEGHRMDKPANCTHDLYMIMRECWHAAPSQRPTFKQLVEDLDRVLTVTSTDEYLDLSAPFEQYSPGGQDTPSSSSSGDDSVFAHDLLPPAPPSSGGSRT
In short: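 Read-out is TR-FRET, with the 520 nm/495 nm emission ratio normalised to DMSO (max) and enzyme-free (min) controls. Enzyme was the FGFR3 cytoplasmic domain, residues 436-806. EDTA (10 mM) stopped the reaction, followed by 60 min at 22 °C before reading.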

FGFR1 = target: T2, FGFR1 (Homo sapiens, UniProt P11362); assay: FGFR1 kinase activity inhibition assay (LanthaScreen TR-FRET); type: biochemical
T2 construct: cytoplasmic domain [398-822 (terminal) amino acids]; purchased Carna 08-133
T2 sequence (P11362 398-822): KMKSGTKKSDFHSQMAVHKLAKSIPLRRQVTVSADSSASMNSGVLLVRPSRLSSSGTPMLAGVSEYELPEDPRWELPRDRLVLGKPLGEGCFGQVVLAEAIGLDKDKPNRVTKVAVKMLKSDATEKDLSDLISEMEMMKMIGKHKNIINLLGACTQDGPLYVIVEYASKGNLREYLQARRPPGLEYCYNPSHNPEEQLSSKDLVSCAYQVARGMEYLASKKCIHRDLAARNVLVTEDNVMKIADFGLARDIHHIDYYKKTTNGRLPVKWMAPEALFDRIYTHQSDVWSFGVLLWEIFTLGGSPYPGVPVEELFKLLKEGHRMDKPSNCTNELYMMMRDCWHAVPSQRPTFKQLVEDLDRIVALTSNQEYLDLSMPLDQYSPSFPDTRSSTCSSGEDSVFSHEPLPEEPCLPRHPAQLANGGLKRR
In short: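 Emission ratio 520 nm/495 nm by TR-FRET after stopping reaction with 10 mM EDTA and 60 min incubation at 22°C. Inhibition normalized between no-enzyme (min) and DMSO (max) controls, then fitted to a four-parameter curve (Top, Bottom, HillSlope).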

[3] = FGFR3 kinase, TR-FRET, read-out: IC50 (nM) FGFR3
[4] = FGFR1 kinase, TR-FRET, read-out: IC50 (nM) FGFR1

| IC50 [1] [nM] | IC50 [2] [nM] | IC50 (FGFR3; [3]) [nM] | Selectivity (X) FGFR1/FGFR3 (FGFR3) | Selectivity (X) FGFR2/FGFR3 (FGFR3) | Selectivity (X) FGFR4/FGFR3 (FGFR3) | IC50 (FGFR1; [4]) [nM] | Structure (SMILES) | Selectivity (X) FGFR1/FGFR3 [1] [X] | IC50 (FGFR3) [nM] | IC50 (FGFR1) [nM] |
| --- | --- | --- | --- | --- | --- | --- | --- | --- | --- | --- |
| 3.4 | 47.5 | < 1 | B (B represents 20 ≤ multiple X<50) | A (A represents 1 ≤ multiple X<20) | C (C represents 50 ≤ multiple X<100) | 10 to 100 | CC(Oc1ccc2[nH]nc(-c3cnn(C)c3)c2c1)c1cc(Cl)cc2nccnc12 (stereo not drawn) [Example 136, 7-chloro-5-(1-((3-(1-methyl-1H-pyrazol-4-yl)-1H-indazol-5-yl)oxy)ethyl)qu inoxaline] | 111 | – | – |
| 10.6 | 85 | 1 to 10 | A (A represents 1 ≤ multiple X<20) | – | – | 10 to 100 | CC(Oc1ccc2[nH]nc(-c3cnn(C)c3)c2c1)c1cccn2ncnc12 (stereo not drawn) [Example 101, 8-(1-((3-(1-methyl-1H-pyrazol-4-yl)-1H-indazol-5-yl)oxy)ethyl)-[1,2,4]triazolo[1,5-a]pyridine] | 23 | – | – |
| 4.8 | 25.5 | < 1 | C (C represents 50 ≤ multiple X<100) | A (A represents 1 ≤ multiple X<20) | C (C represents 50 ≤ multiple X<100) | > 100 | CC(Oc1ccc2[nH]nc(-c3cnn(C)c3)c2c1)c1c(C(F)F)ccc2ncccc12 (stereo not drawn) [Example 127, 6-(difluoromethyl)-5-(1-((3-(1-methyl-1H-pyrazol-4-yl)-1H-indazol-5-yl)oxy)ethyl)quinoline] | 195 | – | – |
| 0.7 | 15.9 | < 1 | A (A represents 1 ≤ multiple X<20) | – | – | 10 to 100 | C[C@@H](Oc1ccc2[nH]nc(-c3cnn(CCN4CCS(=O)(=O)CC4)c3)c2n1)c1c(Cl)cncc1Cl [Example 55, (R)-4-(2-(4-(5-(1-(3,5-dichloropyridin-4-yl)ethoxy)-1H-pyrazolo[4,3-b]pyridin-3-yl)-1H-pyrazol-1-yl)ethyl)thiomorph oline 1,1-dioxide] | 126 | – | – |
| 0.3 | 3.6 | < 1 | A (A represents 1 ≤ multiple X<20) | A (A represents 1 ≤ multiple X<20) | A (A represents 1 ≤ multiple X<20) | 1 to 10 | C[C@@H](Oc1ccc2[nH]nc(-c3cnn(C)c3)c2n1)c1c(Cl)cncc1Cl [Example 29, (R)-5-(1-(3,5-dichloropyridin-4-yl)ethoxy)-3-(1-methyl-1H-pyrazol-4-yl)-1H-pyrazolo[4,3-b]pyridine] | 127 | – | – |
| 8.4 | 16.7 | < 1 | B (B represents 20 ≤ multiple X<50) | A (A represents 1 ≤ multiple X<20) | B (B represents 20 ≤ multiple X<50) | 10 to 100 | CC(=O)N1CC(n2cc(-c3n[nH]c4ccc(OC(C)c5cccc6nccnc56)cc34)cn2)C1 (stereo not drawn) [Example 218, 1-(3-(4-(5-(1-(quinoxalin-5-yl)ethoxy)-1H-indazol-3-yl)-1H-pyrazol-1-yl)azetidin-1-yl)ethan-1-one] | 53 | – | – |
| 3.8 | 18.6 | < 1 | B (B represents 20 ≤ multiple X<50) | A (A represents 1 ≤ multiple X<20) | B (B represents 20 ≤ multiple X<50) | 10 to 100 | CC(Oc1ccc2[nH]nc(-c3cnn(C4CN(C(=O)C(C)(C)O)C4)c3)c2c1)c1cccc2nccnc12 (stereo not drawn) [Example 190, 2-hydroxy-2-methyl-1-(3-(4-(5-(1-(quinoxalin-5-yl)ethoxy)-1H-indazol-3-yl)-1H-pyrazol-1-yl)azetidin-1-yl)propan-1-one] | 113 | – | – |
| 3.1 | 10.7 | < 1 | B (B represents 20 ≤ multiple X<50) | A (A represents 1 ≤ multiple X<20) | B (B represents 20 ≤ multiple X<50) | 10 to 100 | COCC(=O)N1CC(n2cc(-c3n[nH]c4ccc(OC(C)c5cccc6nccnc56)cc34)cn2)C1 (stereo not drawn) [Example 188, 2-methoxy-1-(3-(4-(5-(1-(quinoxalin-5-yl)ethoxy)-1H-indazol-3-yl)-1H-pyrazol-1-yl)azetidin-1-yl)ethan-1-one] | 91 | – | – |
| 19 | 167 | 1 to 10 | A (A represents 1 ≤ multiple X<20) | A (A represents 1 ≤ multiple X<20) | C (C represents 50 ≤ multiple X<100) | 10 to 100 | CC(Oc1ccc2[nH]nc(-c3cnn(C)c3)c2c1)c1cccc2ncccc12 (stereo not drawn) [Example 88, 5-(1-((3-(1-methyl-1H-pyrazol-4-yl)-1H-indazol-5-yl)oxy)ethyl)quin oline] | 180 | – | – |

| Structure (SMILES) | IC50 [1] [nM] | IC50 [2] [nM] | IC50 (FGFR3; [3]) [nM] | Selectivity (X) FGFR1/FGFR3 (FGFR3) | Selectivity (X) FGFR2/FGFR3 (FGFR3) | Selectivity (X) FGFR4/FGFR3 (FGFR3) | IC50 (FGFR1; [4]) [nM] | Selectivity (X) FGFR1/FGFR3 [1] [X] | IC50 (FGFR3) [nM] | IC50 (FGFR1) [nM] |
| --- | --- | --- | --- | --- | --- | --- | --- | --- | --- | --- |
| Cc1ccc2ncccc2c1C(C)Oc1ccc2[nH]nc(-c3cnn(C)c3)c2c1 (stereo not drawn) [Example 95, 6-methyl-5-(1-((3-(1-methyl-1H-pyrazol-4-yl)-1H-indazol-5-yl)oxy)ethyl)quinolinee] | 8 | 23.4 | – | C (C represents 50 ≤ multiple X<100) | A (A represents 1 ≤ multiple X<20) | C (C represents 50 ≤ multiple X<100) | – | 51 | 1 to 10 | 10 to 100 |
| [2H]C([2H])([2H])c1cc2nccnc2c(C(C)Oc2ccc3[nH]nc(-c4cnn(C)c4)c3c2)n1 (stereo not drawn) [Example 241] | 0.8 | 13.5 | – | B (B represents 20 ≤ multiple X<50) | A (A represents 1 ≤ multiple X<20) | A (A represents 1 ≤ multiple X<20) | – | 76 | < 1 | 1 to 10 |
